Values after ≈ are worked out from the molar mass of the structure shown.
What was measured:
[1] = Solubility experiment in 1st fluid of Japanese Pharmacopeia; assay type: physicochemical; settings: 37° C.; for solubility at 1 h: pH 1.2, simulated gastric fluid, thermodynamic from solid, 40 mg in 200 ml 1st fluid of Japanese Pharmacopeia, HPLC, read-out: Solubility 1.0 hour later
Description: To 200 ml of the 1st fluid of Japanese Pharmacopeia (1000 ml solution made by mixing 2.0 g of sodium chloride with 7.0 ml of hydrochloric acid and water) were added 40 mg of Compound A or Compound B, and the mixture was stirred with a stirrer at 37° C. in a 300 ml conical beaker. One hour later, 10 ml of the sample were filtered through Acrodisk LC13 (PVDF, manufactured by German Science Co.). The initial 3 ml were discarded, and the following 7 ml were taken into a test tube. Of this sample, 5 ml were taken accurately with a whole pipette and added to 2 ml of methanol accurately measured in advance in a test tube.
The quantity was measured by HPLC and the solubility was decided from a calibration curve made according to the following procedure.
The calibration curve was made by preparing a methanolic standard solution of Compound A at a concentration of 400 μg/ml, 100 μg/ml and 20 μg/ml, mixing each 2 ml of the standard solution with 5 ml of the 1st fluid of Japanese Pharmacopeia and determined by HPLC.
Analytical column: L-column ODS (4.6 mm ID×15 cm, manufactured by Chemicals Evaluation Research Institute Japan)
Mobile phase: 0.01 mol/L acetic acid buffer solution (pH 5.0)/acetonitrile mixture (13:7)
Flow rate: about 1.0 ml/min.
Column temperature: 40° C.
Detector: ultraviolet absorptiometer (measuring wavelength: 290 nm)

[2] = system: spontaneously diabetic rats (ZDF/Gmi-fa/fa); assay: Blood sugar lowering activity test in spontaneously diabetic rats; assay type: in vivo, rat; settings: for Blood Sugar Level: male ZDF/Gmi-fa/fa rats, average of 6
Description: Male spontaneously diabetic rats (ZDF/Gmi-fa/fa) which were 8-10 weeks old were used.
The test compound was suspended in 0.5% CMC solution, and a dose of 0.33 mg/ml/kg was orally administered consecutively for 2 weeks under compulsion. The blood sugar level was measured in a conventional manner. Thus, the tail end (about 1 mm) of rat was cut, and the blood was collected with a hematocrit tube treated with heparin for anti-coagulation and centrifuged. The resultant plasma was measured with Glucoloader F (A&T).

[3] = 3 Days, 0.33 mg/ml/kg orally, consecutive dosing
[4] = 7 Days, 0.33 mg/ml/kg orally, consecutive dosing
[5] = 14 Days, 0.33 mg/ml/kg orally, consecutive dosing

| solubility at 1 h [1] | SMILES | solubility (comparison in words) ([1]; from Table 2, 1st fluid of Japanese Pharmacopeia) | Blood Sugar Level ([2]; 0 Hour (baseline)) | Blood Sugar Level [2, 3] | Blood Sugar Level [2, 4] | Blood Sugar Level [2, 5] | hypoglycemic activity (comparison in words) ([2]; from Table 1, ZDF/Gmi-fa/fa rats, 0.33 mg/ml/kg orally for 2 weeks) |
| --- | --- | --- | --- | --- | --- | --- | --- |
| 86.4 µg/mL | COc1ccc2nc(COc3ccc(CC4SC(=O)NC4=O)cc3)n(C)c2c1.Cl (stereo not drawn) [Compound A, 5-[4-(6-methoxy-1-methyl-1H-benzimidazol-2-ylmethoxy)benzyl]thiazolidin-2,4-dione hydrochloride] | markedly better solubility than Compound B | 456 mg/dL | 228 mg/dL | 206 mg/dL | 207 mg/dL | more excellent hypoglycemic activity than Compound B |
| 41 µg/mL (≈ 103 µM) | COc1ccc2nc(COc3ccc(CC4SC(=O)NC4=O)cc3)n(C)c2c1 (stereo not drawn) [Compound B, 5-[4-(6-methoxy-1-methyl-1H-benzimidazol-2-ylmethoxy)benzyl]-thiazolidin-2,4-dione, reference compound] |  | 456 mg/dL | 379 mg/dL | 409 mg/dL | 535 mg/dL |  |
